From ChEMBL document CHEMBL3045416, “Synthesis and biological evaluation of new curcumin derivatives as antioxidant and antitumor agents” (Med Chem Res, 2013)

Tests used:
[1] = Antioxidant activity assessed as inhibition of ABTS radical production at 1 mg/ml; type: functional
WI-38 = test: Cytotoxicity against Homo sapiens (human) WI38 cells assessed as cell viability at 20 ug/ml by trypan blue assay; type: functional; settings: read-out: Activity
HepG2 = test: Cytotoxicity against Homo sapiens (human) HepG2 cells assessed as cell viability at 20 ug/ml by trypan blue assay; type: functional; settings: read-out: Activity
Vero = test: Cytotoxicity against Chlorocebus aethiops (African green monkey) Vero cells assessed as cell viability at 20 ug/ml by trypan blue assay; type: functional; settings: Chlorocebus sabaeus, read-out: Activity
[2] = Induction of Homo sapiens (human) RBC haemolysis at 2 ug/ml by spectrophotometric anlaysis; type: cell-based, Erythrocyte; settings: red blood cells, read-out: Activity
MCF7 = test: Cytotoxicity against Homo sapiens (human) MCF7 cells assessed as cell viability at 20 ug/ml by trypan blue assay; type: functional; settings: read-out: Activity
[3] = Antioxidant activity assessed as inhibition of ABTS radical production at 2 mM; type: functional
[4] = Antihaemolysis activity in Homo sapiens (human) RBC assessed as inhibition of ABTS-induced haemolysis at 20 ug/ml incubated for 30 min prior to ABTS-challenge by spectrophotometric analysis; type: functional; settings: Erythrocyte

For `CC(C)(C(=O)/C=C/c1ccc(O)cc1)C(=O)/C=C/c1ccc(O)cc1`, the inhibition [1] was 28.7%, the viability at 20 µg/mL (WI-38) was 88% and the viability at 20 µg/mL (HepG2) was 57%. For the same compound, the viability at 20 µg/mL (Vero) was 82%, the hemolysis at 2 ug/ml [2] was 100% and the viability at 20 µg/mL (MCF7) was 64%.

`COc1ccc(/C=C2\CCCC3C2=NN(c2ccc(Br)cc2)C3c2ccc(OC)cc2)cc1` (configuration not stated) showed an inhibition [1] of 5.03% and a hemolysis at 2 ug/ml [2] of 100%.

`COc1ccc(/C=C2\CCCC/C(=C\c3ccc(OC)cc3)C2=O)cc1` gave an inhibition [1] of 1.74% and a hemolysis at 2 ug/ml [2] of 100%.

Work on `O=C1O[C@H]([C@@H](O)CO)C(O)=C1O` [ASCORBIC ACID] yielded an inhibition [3] of 80.8% and an inhibition at 20 µg/mL [4] of 17.6%.

`COc1ccc(/C=C/C(=O)C(C)(C)C(=O)/C=C/c2ccc(OC)cc2)cc1` showed an inhibition [1] of 7.75% and a hemolysis at 2 ug/ml [2] of 100%.

`COc1ccc(/C=C2\CCCC/C(=C\c3ccc(OC)c(OC)c3)C2=O)cc1OC` gave an inhibition [1] of 0.77% and a hemolysis at 2 ug/ml [2] of 100%.

In the case of `CC(C)(C(=O)/C=C/c1ccc(Cl)cc1)C(=O)/C=C/c1ccc(Cl)cc1`, the inhibition [1] is reported as 2.32% and the hemolysis at 2 ug/ml [2] is reported as 100%.

Compound `COc1ccc(OC)c(/C=C2\CCCC/C(=C\c3cc(OC)ccc3OC)C2=O)c1` has an inhibition [1] of 5.03% and a hemolysis at 2 ug/ml [2] of 100%.

`COc1ccc(OC)c(/C=C2\CCC/C(=C\c3cc(OC)ccc3OC)C2=O)c1` showed an inhibition [1] of 1.16% and a hemolysis at 2 ug/ml [2] of 100%.

With `CCOc1ccc(/C=C/C(=O)C(CC)(CC)C(=O)/C=C/c2ccc(OCC)c(OC)c2)cc1OC` the inhibition [1] was 26.4%, the viability at 20 µg/mL (WI-38) was 82% and the viability at 20 µg/mL (HepG2) was 78%. For the same compound, the viability at 20 µg/mL (Vero) was 88% and the viability at 20 µg/mL (MCF7) was 94%.

In the case of `N#CC1=C(N)OC2=C(CCC/C2=C\c2ccc(O)cc2)C1c1ccc(O)cc1` (configuration not stated), the inhibition [1] is reported as 16.7%, the viability at 20 µg/mL (WI-38) is reported as 79% and the viability at 20 µg/mL (HepG2) is reported as 78%. It also gave a viability at 20 µg/mL (Vero) of 83%, a hemolysis at 2 ug/ml [2] of 100% and a viability at 20 µg/mL (MCF7) of 82%.

Compound `COc1ccc(/C=C2\CCC/C(=C\c3ccc(OC)c(OC)c3)C2=O)cc1OC` has an inhibition [1] of 0% and a hemolysis at 2 ug/ml [2] of 100%.

In the case of `COc1ccc(/C=C2\CCCCC3C2=NN(c2ccc(Br)cc2)C3c2ccc(OC)cc2)cc1` (configuration not stated), the hemolysis at 2 ug/ml [2] is reported as 100%.

With `O=C1/C(=C/c2ccccc2)CCC/C1=C\c1ccccc1` the inhibition [1] was 1.93%.

Compound `Brc1ccc(N2N=C3/C(=C/c4ccccc4)CCCC3C2c2ccccc2)cc1` (configuration not stated) has an inhibition [1] of 1.74% and a hemolysis at 2 ug/ml [2] of 100%.

Compound `COc1ccc(OC)c(/C=C/C(=O)C(C)(C)C(=O)/C=C/c2cc(OC)ccc2OC)c1` has an inhibition [1] of 3.68%, a viability at 20 µg/mL (WI-38) of 80% and a viability at 20 µg/mL (HepG2) of 84%. The viability at 20 µg/mL (Vero) was 74%, the hemolysis at 2 ug/ml [2] was 100% and the viability at 20 µg/mL (MCF7) was 79%.

With `COc1ccc(/C=C2\CCCC3=C2OC(N)=C(C#N)C3c2ccc(OC)cc2)cc1` (configuration not stated) the inhibition [1] was 0.38%.

`COc1ccc(/C=C2\CCC/C(=C\c3ccc(OC)cc3)C2=O)cc1` gave an inhibition [1] of 1.35% and a hemolysis at 2 ug/ml [2] of 100%.

In the case of `COc1ccc(/C=C2\CCCCC3C2=NN(c2ccc(Br)cc2)C3c2ccc(OC)c(OC)c2)cc1OC` (configuration not stated), the hemolysis at 2 ug/ml [2] is reported as 100%.

Compound `O=c1[nH]cc(F)c(=O)[nH]1` [FLUOROURACIL] has a viability at 20 µg/mL (WI-38) of 0%, a viability at 20 µg/mL (HepG2) of 0% and a viability at 20 µg/mL (Vero) of 0%. For the same compound, the viability at 20 µg/mL (MCF7) was 0%.

In the case of `COc1ccc(OC)c(/C=C2\CCCC3C2=NNC3c2cc(OC)ccc2OC)c1` (configuration not stated), the inhibition [1] is reported as 25.6%, the viability at 20 µg/mL (WI-38) is reported as 100% and the viability at 20 µg/mL (HepG2) is reported as 78%. It also gave a viability at 20 µg/mL (Vero) of 67%, a hemolysis at 2 ug/ml [2] of 100% and a viability at 20 µg/mL (MCF7) of 82%.

In the case of `COc1cc(/C=C2\CCCC3C2=NNC3c2ccc(O)c(OC)c2)ccc1O` (configuration not stated), the inhibition [1] is reported as 76.7%, the viability at 20 µg/mL (WI-38) is reported as 65% and the viability at 20 µg/mL (HepG2) is reported as 21%. For the same compound, the viability at 20 µg/mL (Vero) was 12% and the viability at 20 µg/mL (MCF7) was 19%.

`Oc1ccc(/C=C2\CCCC3C2=NNC3c2ccc(O)cc2)cc1` (configuration not stated) gave an inhibition [1] of 54.5%, a viability at 20 µg/mL (WI-38) of 88% and a viability at 20 µg/mL (HepG2) of 89%. For the same compound, the viability at 20 µg/mL (Vero) was 76% and the viability at 20 µg/mL (MCF7) was 75%.

Work on `Clc1ccc(/C=C2\CCCC3C2=NN(c2ccc(Br)cc2)C3c2ccc(Cl)cc2)cc1` (configuration not stated) yielded an inhibition [1] of 2.9% and a hemolysis at 2 ug/ml [2] of 100%.

`COc1ccc(/C=C2\CCCC3C2=NN(c2ccc(Br)cc2)C3c2ccc(OC)c(OC)c2)cc1OC` (configuration not stated) showed an inhibition [1] of 0.19% and a hemolysis at 2 ug/ml [2] of 100%.

Work on `N#CC1=C(N)OC2=C(CCC/C2=C\c2ccc(Cl)cc2)C1c1ccc(Cl)cc1` (configuration not stated) yielded an inhibition [1] of 1.55%.

Compound `COc1ccc(OC)c(/C=C2\CCCCC3C2=NN(c2ccc(Br)cc2)C3c2cc(OC)ccc2OC)c1` (configuration not stated) has a hemolysis at 2 ug/ml [2] of 100%.

In the case of `COc1ccc(/C=C2\CCCC3=C2OC(N)=C(C#N)C3c2ccc(OC)c(OC)c2)cc1OC` (configuration not stated), the inhibition [1] is reported as 16.9%, the viability at 20 µg/mL (WI-38) is reported as 12% and the viability at 20 µg/mL (HepG2) is reported as 19%. It also gave a viability at 20 µg/mL (Vero) of 65%, a hemolysis at 2 ug/ml [2] of 100% and a viability at 20 µg/mL (MCF7) of 21%.

Compound `COc1cc(/C=C/C(=O)C(C)(C)C(=O)/C=C/c2ccc(O)c(OC)c2)ccc1O` has an inhibition [1] of 52.9%, a viability at 20 µg/mL (WI-38) of 78% and a viability at 20 µg/mL (HepG2) of 47%. The viability at 20 µg/mL (Vero) was 82% and the viability at 20 µg/mL (MCF7) was 55%.

`COc1cc(/C=C2\CCC/C(=C\c3ccc(O)c(OC)c3)C2=O)ccc1O` [CYCLOVALONE] gave an inhibition [1] of 74.2%, a viability at 20 µg/mL (WI-38) of 58% and a viability at 20 µg/mL (HepG2) of 28%. The viability at 20 µg/mL (Vero) was 69% and the viability at 20 µg/mL (MCF7) was 32%.

`N#CC1=C(N)OC2=C(CCC/C2=C\c2ccccc2)C1c1ccccc1` (configuration not stated) showed an inhibition [1] of 0.19%.

Compound `O=C1/C(=C/c2ccc(O)cc2)CCC/C1=C\c1ccc(O)cc1` has an inhibition [1] of 9.49%, a viability at 20 µg/mL (WI-38) of 77% and a viability at 20 µg/mL (HepG2) of 88%. The viability at 20 µg/mL (Vero) was 84%, the hemolysis at 2 ug/ml [2] was 100% and the viability at 20 µg/mL (MCF7) was 74%.

`O=C1/C(=C/c2ccc(Cl)cc2)CCC/C1=C\c1ccc(Cl)cc1` showed an inhibition [1] of 0.58% and a hemolysis at 2 ug/ml [2] of 100%.

`COc1cc(/C=C2\CCCC3=C2OC(N)=C(C#N)C3c2ccc(O)c(OC)c2)ccc1O` (configuration not stated) gave an inhibition [1] of 57.8%, a viability at 20 µg/mL (WI-38) of 84% and a viability at 20 µg/mL (HepG2) of 81%. For the same compound, the viability at 20 µg/mL (Vero) was 82%, the hemolysis at 2 ug/ml [2] was 100% and the viability at 20 µg/mL (MCF7) was 79%.

In the case of `COc1cc(/C=C/C(=O)CC(=O)/C=C/c2ccc(O)c(OC)c2)ccc1O` [CURCUMIN], the inhibition [1] is reported as 87.6%, the viability at 20 µg/mL (WI-38) is reported as 51% and the viability at 20 µg/mL (HepG2) is reported as 18%. It also gave a viability at 20 µg/mL (Vero) of 24% and a viability at 20 µg/mL (MCF7) of 19%.

Work on `COc1ccc(OC)c(/C=C2\CCCC3=C2OC(N)=C(C#N)C3c2cc(OC)ccc2OC)c1` (configuration not stated) yielded an inhibition [1] of 0.38%.

Work on `COc1ccc(/C=C/C(=O)C(C)(C)C(=O)/C=C/c2ccc(OC)c(OC)c2)cc1OC` yielded an inhibition [1] of 12.6%, a viability at 20 µg/mL (WI-38) of 75% and a viability at 20 µg/mL (HepG2) of 78%. The viability at 20 µg/mL (Vero) was 89%, the hemolysis at 2 ug/ml [2] was 100% and the viability at 20 µg/mL (MCF7) was 87%.

For `CC(C)(C(=O)/C=C/c1ccccc1)C(=O)/C=C/c1ccccc1`, the inhibition [1] was 4.84% and the hemolysis at 2 ug/ml [2] was 100%.

Work on `COc1ccc(OC)c(/C=C2\CCCC3C2=NN(c2ccc(Br)cc2)C3c2cc(OC)ccc2OC)c1` (configuration not stated) yielded an inhibition [1] of 0.77% and a hemolysis at 2 ug/ml [2] of 100%.
